Assay results reported in patent publication US5830869A, “Thiadiazole amide MMP inhibitors” (priority 1997, dated 1998).

target: Stromelysin (Homo sapiens, UniProt P08254); assay: Stromelysin inhibition, in vitro particle concentration fluorescence assay (TABLE 1, MMP Inhibition Constants); type: biochemical; details: fluorescein/biotin substrate, MMP buffer pH 7.5, room temperature, 15 min preincubation with enzyme, 1-3 h with substrate
Protocol: Inhibitory activity is evaluated in one or more of the MMP enzymes (stromelysin, gelatinase, and collagenase) in vitro using particle concentration fluorescence assay. An inhibitor binds to MMP enzymes which prevents the degradation of a substrate by stromelysin, gelatinase, or collagenase. The substrate has attached to it a fluorescein and a biotin moiety. The intact substrate then binds to an avidin-coated particle via the biotin moiety. Once the particle is washed and dried, a fluorescent signal is generated since the fluorescent group is attached to the particle. Without an inhibitor present, the substrate is degraded by MMP enzymes and the fluorescein group is removed, therefore, no fluorescent signal can be detected. Testing compounds are dissolved in DMSO to the desired concentration, then the solutions are diluted to 1:5 with MMP buffer (50 mM Tris-HCl, pH 7.5; 150 mM NaCl; 0.02% NaN3). Serial two-fold dilutions of each compound are prepared. A concentrated, activated enzyme solution is transferred into each plate of the testing compounds, and the mixture is incubated at room temperature for 15 minutes. Thawed MMP substrate is then added into all plates, and the plates are incubated in the dark for 1-3 hours at room temperature. At this point, the substrate mixture is mixed with 0.1% avidin-coated polystyrene particles. After 15 minutes, the fluorescence values are measured following filtration and washing of the beads. Ki values are then calculated.

Stromelysin, sequence (P08254 100-477): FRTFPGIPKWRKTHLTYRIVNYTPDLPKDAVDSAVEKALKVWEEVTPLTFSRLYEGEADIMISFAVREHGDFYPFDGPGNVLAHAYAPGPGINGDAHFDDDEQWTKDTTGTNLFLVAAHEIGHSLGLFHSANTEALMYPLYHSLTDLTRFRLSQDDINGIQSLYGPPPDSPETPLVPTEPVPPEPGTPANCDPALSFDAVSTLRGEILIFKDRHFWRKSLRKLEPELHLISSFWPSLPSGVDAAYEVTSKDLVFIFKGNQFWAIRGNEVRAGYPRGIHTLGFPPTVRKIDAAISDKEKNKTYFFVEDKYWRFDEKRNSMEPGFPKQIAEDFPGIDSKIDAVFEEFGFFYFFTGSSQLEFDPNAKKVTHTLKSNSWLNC

Row | Compound | Ki
1 | CC(C)(C)OC(=O)N[C@@H](Cc1c(F)c(F)c(F)c(F)c1F)C(=O)Nc1n[nH]c(=S)s1 [Example 28, (S)-[2-[(4,5-dihydro-5-thioxo-1,3,4-thiadiazol-2-yl)amino]-2-oxo-1-[(pentafluorophenyl)methyl]ethyl]carbamic acid 1,1-dimethylethyl ester] | 2220 nM
2 | CC(C)(C)OC(=O)N1CCC[C@H]1C(=O)N[C@H](C(=O)Nc1n[nH]c(=S)s1)C(C)(C)C [Example 29, 1-[(1,1-dimethylethoxy)carbonyl]-L-prolyl-N-(4,5-dihydro-5-thioxo-1,3,4-thiadiazol-2-yl)-3-methyl-L-valinamide] | 1470 nM
3 | O=C(CCc1ccccc1)N[C@@H](Cc1c(F)c(F)c(F)c(F)c1F)C(=O)Nc1n[nH]c(=S)s1 [Example 30, (S)-α-N-(4,5-dihydro-5-thioxo-1,3,4-thiadiazol-2-yl)-2,3,4,5,6-pentafluoro-[(1-oxo-3-phenylpropyl)amino]benzenepropanamide] | 970 nM
4 | O=C(NCCC[C@H](NC(=O)OCc1ccccc1)C(=O)Nc1n[nH]c(=S)s1)OCc1ccccc1 [Example 31, (S)-[1-[[(4,5-dihydro-5-thioxo-1,3,4-thiadiazol-2-yl)amino]carbonyl]-1,4-butanediyl]bis carbamic acid bis(phenylmethyl) ester] | 2810 nM
5 | CC(C)(C)[C@H](NC(=O)Cc1c[nH]c2ccccc12)C(=O)Nc1n[nH]c(=S)s1 [Example 32] | 410 nM
6 | O=C(N[C@@H](Cc1c[nH]c2ccccc12)C(=O)Nc1n[nH]c(=S)s1)OCc1ccccc1 [Example 33, (S)-[2-[(4,5-dihydro-5-thioxo-1,3,4-thiadiazol-2-yl)amino]-1-(1H-indol-3-yl-methyl)-2-oxoethyl]-carbamic acid, phenylmethyl ester] | 10200 nM
7 | O=C(N[C@@H](Cc1ccccc1)C(=O)Nc1n[nH]c(=S)s1)OCc1ccccc1 [Example 34, (S)-[2-[(4,5-dihydro-5-thioxo-1,3,4-thiadiazol-2-yl)amino]-2-oxo-1-(phenylmethyl)ethyl]carbamic acid phenylmethyl ester] | 6090 nM
8 | CC(C)C[C@H](NC(=O)OCc1ccccc1)C(=O)Nc1n[nH]c(=S)s1 [Example 35, (S)-[1-[[(4,5-dihydro-5-thioxo-1,3,4-thiadiazol-2-yl)amino]carbonyl]-3-methylbutyl]carbamic acid phenylmethyl ester] | 2220 nM
9 | CC(C)[C@H](NC(=O)OCc1ccccc1)C(=O)Nc1n[nH]c(=S)s1 [Example 36, (S)-[1-[[(4,5-dihydro-5-thioxo-1,3,4-thiadiazol-2-yl)amino]carbonyl]-2-methylpropyl]carbamic acid phenylmethyl ester] | 1160 nM
10 | CC(C)(C)[C@H](NC(=O)OCC1c2ccccc2-c2ccccc21)C(=O)Nc1n[nH]c(=S)s1 [Example 37, (S)-[1-[[(4,5-dihydro-5-thioxo-1,3,4-thiadiazol-2-yl)amino]carbonyl]-2,2-dimethylpropyl]carbamic acid 9H-fluoren-9-yl-methyl ester] | 120 nM
11 | O=C(NCC(C(=O)Nc1n[nH]c(=S)s1)c1ccccc1)OCc1ccccc1 (centres unmarked) [Example 38, [3-[(4,5-dihydro-5-thioxo-1,3,4-thiadiazol-2-yl)amino]-3-oxo-2-phenylpropyl]carbamic acid phenylmethyl ester] | 2270 nM
12 | O=C(NCC(Cc1ccccc1)C(=O)Nc1n[nH]c(=S)s1)OCc1ccccc1 (centres unmarked) [Example 39, [3-[(4,5-dihydro-5-thioxo-1,3,4-thiadiazol-2-yl)amino]-3-oxo-2-(phenylmethyl)propyl]carbamic acid phenylmethyl ester] | 1320 nM
13 | CC(C)(C)C(CC(=O)Nc1n[nH]c(=S)s1)NC(=O)OCc1ccccc1 (centres unmarked) [Example 40, [3-[(4,5-dihydro-5-thioxo-1,3,4-thiadiazol-2-yl)amino]-3-oxo-1-(1,1-dimethylethyl)propyl]carbamic acid phenylmethyl ester] | 11100 nM
14 | O=C(CC(NC(=O)OCc1ccccc1)c1ccccc1)Nc1nnc(S)s1 (centres unmarked) [Example 41, [3-[(4,5-dihydro-5-thioxo-1,3,4-thiadiazol-2-yl)amino]-3-oxo-1-phenylpropyl]carbamic acid phenylmethyl ester] | 400 nM
15 | O=C(CC(NC(=O)c1ccccc1)c1ccccc1)Nc1n[nH]c(=S)s1 (stereo not drawn) [Example 42, β-(benzoylamino)-N-(4,5-dihydro-5-thioxo-1,3,4-thiadiazol-2-yl)benzenepropanamide] | 1360 nM
16 | O=C(CC(NC(=O)Cc1ccccc1)c1ccccc1)Nc1n[nH]c(=S)s1 (stereo not drawn) [Example 43, N-(4,5-dihydro-5-thioxo-1,3,4-thiadiazol-2-yl)-β-[(phenylacetyl)amino]benzenepropanamide] | 655 nM
17 | O=C(CC(NC(=O)CCc1ccccc1)c1ccccc1)Nc1n[nH]c(=S)s1 (centres unmarked) [Example 44] | 690 nM
18 | CC(C)(C)OC(=O)NC(CC(=O)Nc1n[nH]c(=S)s1)c1ccccc1 (centres unmarked) [Example 45, [3-[(4,5-dihydro-5-thioxo-1,3,4-thiadiazol-2-yl)amino]-3-oxo-1-phenylpropyl]carbamic acid 1,1-dimethylethyl ester] | 720 nM
19 | O=C(CC(NC(=O)OCC1c2ccccc2-c2ccccc21)c1ccccc1)Nc1n[nH]c(=S)s1 (centres unmarked) [Example 46, [3-[(4,5-dihydro-5-thioxo-1,3,4-thiadiazol-2-yl)amino]-3-oxo-1-phenylpropyl]carbamic acid 9H-fluoren-9-yl methyl ester] | 440 nM
20 | COCC(=O)NC(CC(=O)Nc1n[nH]c(=S)s1)c1ccccc1 (stereo not drawn) [Example 47, N-(4,5-dihydro-5-thioxo-1,3,4-thiadiazol-2-yl)-β-[(methoxyacetyl)amino]benzenepropanamide] | 1360 nM
21 | O=C(CC(NC(=O)COc1ccccc1)c1ccccc1)Nc1n[nH]c(=S)s1 (stereo not drawn) [Example 48, N-(4,5-dihydro-5-thioxo-1,3,4-thiadiazol-2-yl)-β-[(phenoxyacetyl)amino]benzenepropanamide] | 313 nM
22 | O=C(CC(NC(=O)COCc1ccccc1)c1ccccc1)Nc1n[nH]c(=S)s1 (stereo not drawn) [Example 49, N-(4,5-dihydro-5-thioxo-1,3,4-thiadiazol-2-yl)-β-[(phenylmethoxyacetyl)amino]benzenepropanamide] | 840 nM
23 | O=C(C[C@H](NC(=O)OCc1ccccc1)c1ccccc1)Nc1n[nH]c(=S)s1 [Example 51, (S)-[3-[(4,5-dihydro-5-thioxo-1,3,4-thiadiazol-2-yl)amino]-3-oxo-1-phenylpropyl]carbamic acid phenylmethyl ester] | 1500 nM
24 | O=C(C[C@@H](NC(=O)OCc1ccccc1)c1ccccc1)Nc1n[nH]c(=S)s1 [Example 52, (R)-[3-[(4,5-dihydro-5-thioxo-1,3,4-thiadiazol-2-yl)amino]-3-oxo-1-phenylpropyl]carbamic acid phenylmethyl ester] | 260 nM
25 | O=C(N[C@H]1CCCC[C@H]1C(=O)Nc1n[nH]c(=S)s1)OCC1c2ccccc2-c2ccccc21 [Example 53, (1S-cis-)-[2-[[(4,5-dihydro-5-thioxo-1,3,4-thiadiazol-2-yl)amino]carbonyl]cyclohexyl]carbamic acid 9H-fluoren-9-yl-methyl ester] | 15000 nM
26 | CC(C)C[C@@H](CC(=O)Nc1n[nH]c(=S)s1)NC(=O)OCc1ccccc1 [Example 54, (S)-[1-[2-[[4,5-dihydro-5-thioxo-1,3,4-thiadiazol-2-yl)amino]-2-oxoethyl]-3-methylbutyl]carbamic acid phenylmethyl ester] | 1200 nM
27 | CCOC(=O)C(Cc1ccccc1)C(=O)Nc1n[nH]c(=S)s1 (stereo not drawn) [Example 57, ethyl α-[[(4,5-dihydro-5-thioxo-1,3,4-thiadiazol-2yl)amino]carbonyl]benzenepropanoate] | 4050 nM
28 | CCOC(=O)C(C(=O)Nc1n[nH]c(=S)s1)C(C)(C)C (stereo not drawn) [Example 58, ethyl α-[[(4,5-dihydro-5-thioxo-1,3,4-thiadiazol-2-yl)amino]carbonyl]-3,3-dimethylbutanoate] | 5000 nM
29 | CNC(=O)C(C(=O)Nc1n[nH]c(=S)s1)C(C)(C)C (stereo not drawn) [Example 59, N-methyl-α-[[(4,5-dihydro-5-thioxo-1,3,4-thiadiazol-2-yl)amino]carbonyl]-3,3-dimethylbutanamide] | 4300 nM
